The values below come from PMC6009863, “Symmetric molecules with 1,4-triazole moieties as potent inhibitors of tumour-associated lactate dehydrogenase-A” (Journal of Enzyme Inhibition and Medicinal Chemistry, 2017).

For orientation: IC50 means the midpoint of a concentration-inhibition curve. As usually defined, the melting point is the temperature, or range, at which the solid turns liquid.

The test system of the first data set is LDHA.
Experiment: not given
Set-up: method as in PMID 22417091. The conditions noted are these: NMR and SPR fragment based hit identification series; read-out: IC50 (LDHA inhibition); cited from earlier work.
`CCCSc1nc2ccc(NC(=O)CCNC(=O)CCCc3ccc(CC(C(=O)O)C(=O)O)cc3)cc2s1` [A]: the IC50 is 0.27 µM.

The next data set has as its system LDHA.
Experiment: not given
Also on record: method as in PMID 23302067. The conditions noted are these: fragment-based hit identification series; read-out: IC50 (LDHA inhibition); cited from earlier work.
For `COc1cc(OC[C@@H](O)[C@@H](O)[C@H](O)[C@H](O)CNc2cc(F)cc(-c3ccc(C(=O)O)cn3)c2)c(Cl)cc1NC(=O)CSc1ccc(C(=O)O)cn1` [B], the half-maximal inhibitory concentration (IC50) is 0.12 µM.

Test system in the next data set: not given
Experiment: not given
Settings: not given
As to `O=C(Cn1cc(-c2cccc(-c3cn(CC(=O)Nc4ccc(C(=O)O)cc4)nn3)c2)nn1)Nc1ccc(C(=O)O)cc1` [Compound 7b], the melting point was 291 to 292 °C.

The target of another data set is T1, recombinant human LDHA protein (Homo sapiens, UniProt P00338).
T1 construct: purchased Abcam ab93699
As to the kind of experiment: LDHA inhibition assay (Lactate Dehydrogenase Assay Kit, colorimetric). Type of data set: biochemical. The conditions noted are these: mean from three different assays, colorimetric assay measuring absorbance at 450 nm, errors ±5–10%. The method, then:
All 15 symmetrical compounds were evaluated for their ability to inhibit LDHA, for the comparison galloflavin as a known isoform nonselective LDHA inhibitor[20] was used. Our choice of galloflavin was based on the fact that it is extensively studied as potent anticancer agents in recent years; additionally, galloflavin is already commercially available.
Lactate Dehydrogenase Assay Kit (Abcam, ab102526) and recombinant human LDHA protein (Abcam, ab93699) were used to assess the inhibitory effect of the tested compounds. First we generated a NADH standard curve for colorimetric detection by measuring the OD (450 nm) at different molar amounts of NADH. The linear regression equation of the curve was derivatized in Graphpad Prism. Tested compounds were dissolved in DMSO and their inhibitory activity was assessed at 140 and 300 μM strength. Galloflavin (Sigma, SML0776) at the same molar concentration was used as a known LDH inhibitor. The master reaction mix composed of LDH assay buffer and 10 ng human LDHA […] per reaction was prepared. Tested compounds were added and the final reaction volume was adjusted to 50 µL. Absorbance at 450 nm was taken after 2-3 minutes (T-initial) and continued every minute for 118 mins (T-final). The change in measurement over time (delta A450) was calculated as T-final minus T-initial. The amount of NADH generated by the assay between T-initial and T-final was deduced by comparing the A450 of each sample to the standard NADH standard curve. […]
Consider `COc1cc(-c2cn(CC(=O)NCc3ccc(S(N)(=O)=O)cc3)nn2)cc(-c2cn(CC(=O)NCc3ccc(S(N)(=O)=O)cc3)nn2)c1` [Compound 21a], for which the IC50 came out at 173 µM.

Consider `COc1cc(-c2cn(CC(=O)NCc3ccc(C(=O)O)cc3)nn2)cc(-c2cn(CC(=O)NCc3ccc(C(=O)O)cc3)nn2)c1` [Compound 21b], for which the IC50 is 128 µM. With `NS(=O)(=O)c1ccc(NC(=O)Cn2cc(-c3cccc(-c4cn(CC(=O)Nc5ccc(S(N)(=O)=O)cc5)nn4)c3)nn2)cc1` [Compound 7a], the IC50 was 128 µM. The same measure, in the same setting: the result for `O=C(Cn1cc(-c2cncc(-c3cn(CC(=O)Nc4ccc(C(=O)O)cc4)nn3)c2)nn1)Nc1ccc(C(=O)O)cc1` [Compound 15b] reads 125 µM; that for `COc1cc(-c2cn(CC(=O)Nc3ccc(S(N)(=O)=O)cc3)nn2)cc(-c2cn(CC(=O)Nc3ccc(S(N)(=O)=O)cc3)nn2)c1` [Compound 20a], 165 µM. Still for that read-out and setting: for `O=C(Cn1cc(-c2cccc(-c3cn(CC(=O)Nc4ccc(C(=O)O)cc4)nn3)c2)nn1)Nc1ccc(C(=O)O)cc1` [Compound 7b] the value was 120 µM. The same measure, in the same setting: for `O=C(Cn1cc(-c2cncc(-c3cn(CC(=O)NCc4ccc(C(=O)O)cc4)nn3)c2)nn1)NCc1ccc(C(=O)O)cc1` [Compound 16b] the value was 117 µM; for `NS(=O)(=O)c1ccc(CNC(=O)Cn2cc(-c3cccc(-c4cn(CC(=O)NCc5ccc(S(N)(=O)=O)cc5)nn4)c3)nn2)cc1` [Compound 11a], 158 µM. With `O=C(Cn1cc(-c2cncc(-c3cn(CC(=O)Nc4ccc([N+](=O)[O-])cc4)nn3)c2)nn1)Nc1ccc([N+](=O)[O-])cc1` [Compound 15c], the IC50 was found to be 156 µM. Still for that read-out and setting: the result for `NS(=O)(=O)c1ccc(NC(=O)Cn2cc(-c3cncc(-c4cn(CC(=O)Nc5ccc(S(N)(=O)=O)cc5)nn4)c3)nn2)cc1` [Compound 15a] reads 136 µM. On the same count and under the same terms, for `COc1cc(-c2cn(CC(=O)Nc3ccc([N+](=O)[O-])cc3)nn2)cc(-c2cn(CC(=O)Nc3ccc([N+](=O)[O-])cc3)nn2)c1` [Compound 20c] the value was 163 µM; for `O=C(Cn1cc(-c2cccc(-c3cn(CC(=O)NCc4ccc(C(=O)O)cc4)nn3)c2)nn1)NCc1ccc(C(=O)O)cc1` [Compound 11b], 156 µM; for `O=C(Cn1cc(-c2cccc(-c3cn(CC(=O)Nc4ccc([N+](=O)[O-])cc4)nn3)c2)nn1)Nc1ccc([N+](=O)[O-])cc1` [Compound 7c], 172 µM. `NS(=O)(=O)c1ccc(CNC(=O)Cn2cc(-c3cncc(-c4cn(CC(=O)NCc5ccc(S(N)(=O)=O)cc5)nn4)c3)nn2)cc1` [Compound 16a]: the IC50 stood at 174 µM.

With `COc1cc(-c2cn(CC(=O)Nc3ccc(C(=O)O)cc3)nn2)cc(-c2cn(CC(=O)Nc3ccc(C(=O)O)cc3)nn2)c1` [Compound 20b], the IC50 was found to be 127 µM.

As for `O=c1oc2c(cc1O)oc(=O)c1cc(O)c(O)c(O)c12` [Galloflavin, reference compound], the IC50 was found to be 157 µM.

In another data set the test system is LDHA.
Experiment: not given
Set-up: method as in PMID 30108883. The conditions noted are these: docking-based virtual screening hit; read-out: IC50 (LDHA inhibition potency in vitro); cited from earlier work.
As for `CCc1cc(=O)c(O)c([C@@H](CC(N)=O)c2cc3ccccc3n(CC(C)C)c2=O)o1` [C], the 50% inhibitory concentration (IC50) was 0.33 µM.
